Key:
Assay type in all cases: in vivo, male C57BL/6 mice
CFA-injected mice [1] = experiment: plantar test (thermal hyperalgesia) in CFA-induced chronic inflammatory pain; conditions: for Thermal hyperalgesia Withdrawal latency: mean ± SEM, n=6; for reversal of the antihyperalgesic (antinociceptive) effects produced by 300 µg of JWH-015 / reversal of the antihyperalgesic effects produced by 150 µg of DPDPE: subplantar coadministration; for reversal of the antihyperalgesic effects produced by 150 µg of DPDPE: P < 0.001
Experimental: (§1) The experiments were performed in male C57BL/6 mice acquired from Harlan Laboratories (Barcelona, Spain). All mice weighing 21 to 25 g were housed under 12-h/12-h light/ dark conditions in a room with controlled temperature (22° C) and humidity (66%). Animals had free access to food and water and were used after a minimum of 7 days acclimatization to the housing conditions. All experiments were performed according with the Guide for the Care and Use of Laboratory Animals as adopted and promulgated by the U.S. National Institutes of Health and approved by the local Committee of Animal Use and Care of the Autonomous University of Barcelona. All efforts were made to minimize animal suffering and to reduce the number of animals used.
(§2) Chronic inflammatory pain was induced by the subplantar injection of 30 µl of CFA (Sigma) into the right hind paw under brief anesthetic conditions with isoflurane according to previous works (Leánez et al., Eur J Pharmacol, 2009, 602:41-49; Hervera et al., Naunyn Schmiedebergs Arch Pharmacol, 2009, 380:345-352). All experiments were performed at 10 days after CFA injection. At this time point, all of these animals developed a local inflammatory reaction, allodynia to mechanical stimuli and hyperalgesia to noxious thermal stimuli, as previously reported (Negrete et al., PLoS One, 2011, 6:e26688). The development of mechanical allodynia and thermal hyperalgesia was evaluated by using the von Frey filaments and plantar tests, respectively. All animals were tested in each paradigm before and at 10 days after CFA-injection.
Thermal hyperalgesia was assessed as previously reported by Hargreaves et al. (Pain, 1988, 32:77-88). Paw withdrawal latency in response to radiant heat was measured using the plantar test apparatus (Ugo Basile, Varese, Italy). Briefly, mice were placed in methacrylate cylinders (20 cm high x 9 cm diameter) positioned on a glass surface. The heat source was positioned under the plantar surface of the hind paw and activated with a light beam intensity, chosen in preliminary studies to give baseline latencies from 8 to 10 s in control mice. A cut-off time of 12 s was used to prevent tissue damage in absence of response. The mean paw withdrawal latencies from the ipsilateral and contralateral hind paws were determined from the average of three separate trials, taken at 5 min intervals to prevent thermal sensitization and behavioral disturbances. Animals were habituated to the environment for 1 h before the experiment to become quiet and to allow testing. […]
In another set of experiments, we evaluated the mechanical antiallodynic and thermal antihyperalgesic effects produced by the subplantar administration of 290 µg of SnPP alone or combined with the subplantar administration of a high dose of DPDPE (150 µg) or JWH-015 (300 µg) in the contralateral and ipsilateral paw of CFA-injected animals (n = 6 animals per group).
The reversibility of the antinociceptive effects produced by the subplantar administration of DPDPE (150 µg) or JWH-015 (300 µg), as doses that produce the maximal antiallodynic and antihyperalgesic effects after peripheral inflammation, by their subplantar coadministration with specific (naltrindole; 50 µg; AM630; 60 µg) and an unspecific peripheral opioid antagonist (naloxone methiodide, NX-ME; 50 µg) or a cannabinoid 1 receptor (CB1R) antagonist (AM251; 150 µg) (Hervera et al., J Pharmacol Exp Ther, 2010, 334: 887-896; Hervera et al., Mol Pain, 2011, 7:25) was also evaluated (n = 6 animals per group). The doses of all tested opioid and cannabinoid receptor antagonists were selected according to our previous data in animals with chronic pain (Hervera et al., Naunyn Schmiedebergs Arch Pharmacol, 2009, 380:345-352; Hervera et al., Psychopharmacology, 2013, 228:463-477; Negrete et al., PLoS One, 2011, 6:e26688).
CoPP and SnPP were dissolved in DMSO (1 % solution in saline). JWH-015, AM630, AM251 were dissolved in DMSO (50 % solution in saline). […]

CFA-injected mice [2] = experiment: von Frey filaments test (mechanical allodynia) in CFA-induced chronic inflammatory pain; conditions: for Mechanical allodynia von Frey filaments strength / Mechanical allodynia, Experimental results (%) (maximal possible effect): ipsilateral paw; for Mechanical allodynia von Frey filaments strength: mean ± SEM, n=6; for reversal of the antiallodynic (antinociceptive) effects produced by 300 µg of JWH-015 / reversal of the antiallodynic effects produced by 150 µg of DPDPE: subplantar coadministration; for Mechanical allodynia, Experimental results (%) (maximal possible effect): CoPP 10 mg/kg intraperitoneal; for reversal of the antiallodynic effects produced by 150 µg of DPDPE: P < 0.001
Experimental: as §1, §2
Mechanical allodynia was quantified by measuring the hind paw withdrawal response to von Frey filament stimulation. In brief, animals were placed in methacrylate cylinders (20 cm high, 9 cm diameter; Servei Estació, Barcelona, Spain) with a wire grid bottom through which the von Frey filaments (North Coast Medical, Inc., San Jose, CA) with a bending force in the range of 0.008-3.5 g were applied by using a modified version of the up-down paradigm, as previously reported by Chaplan et al. (J Neurosci Methods, 1994, 53:55-63). The filament of 0.4 g was used first and the 3.0 g filament was used as a cut-off. Then, the strength of the next filament was decreased or increased according to the response. The threshold of response was calculated from the sequence of filament strength used during the up-down procedure by using an Excel program (Microsoft Iberia SRL, Barcelona, Spain) that includes curve fitting of the data. Clear paw withdrawal, shaking, or licking of the paw was considered as a nociceptive-like response. Both ipsilateral and contralateral hind paws were tested. Animals were allowed to habituate for 1 h before testing in order to allow an appropriate behavioral immobility.
In a first set of experiments, we assessed the expression of inflammatory pain induced by the subplantar administration of CFA as previously used (Leánez et al., Eur J Pharmacol, 2009, 602:41-49). After the habituation period, baseline responses were established in the following sequence: von Frey filaments and plantar test. After baseline measurements, inflammatory pain was induced and animals were again tested in each paradigm at day 10 after CFA injection by using the same sequence as for baseline responses. The contralateral paws were used as controls (n = 6 animals per group).
In a second set of experiments, we evaluated the mechanical antiallodynic and thermal antihyperalgesic effects of the subplantar administration of different doses of a specific DOR (DPDPE) or CB2R (JWH-015) agonist and their respective vehicles in the contralateral and ipsilateral paw of CFA-injected animals (n = 6 animals per group). […]

CFA-injected mice [3] = experiment: plantar test (thermal hyperalgesia) in CFA-induced chronic inflammatory pain
Experimental: as §1
Chronic inflammatory pain was induced by the subplantar injection of 30 µl of CFA (Sigma) into the right hind paw under brief anesthetic conditions with isoflurane according to previous works (Leánez et al., Eur J Pharmacol, 2009, 602:41-49; Hervera et al., Naunyn Schmiedebergs Arch Pharmacol, 2009, 380:345-352). All experiments were performed at 10 days after CFA injection. […] The development of mechanical allodynia and thermal hyperalgesia was evaluated by using the von Frey filaments and plantar tests, respectively. […]
Thermal hyperalgesia was assessed as previously reported by Hargreaves et al. (Pain, 1988, 32:77-88). Paw withdrawal latency in response to radiant heat was measured using the plantar test apparatus (Ugo Basile, Varese, Italy). […] The mean paw withdrawal latencies from the ipsilateral and contralateral hind paws were determined from the average of three separate trials, taken at 5 min intervals to prevent thermal sensitization and behavioral disturbances. […]
In a first set of experiments, we assessed the expression of inflammatory pain induced by the subplantar administration of CFA as previously used (Leánez et al., Eur J Pharmacol, 2009, 602:41-49). […]

[4] = Table 7, CB2R agonist, ipsilateral paw, subplantar JWH-015 300 µg, AM630 60 µg, AM251 150 µg, vehicle+vehicle 3.8 ± 0.3
[5] = Table 7, CB2R agonist, subplantar JWH-015 300 µg, AM630 60 µg, AM251 150 µg, vehicle+vehicle 1.4 ± 0.1
[6] = Table 7, DOR agonist, subplantar DPDPE 150 µg, naltrindole 50 µg, NX-ME 50 µg, vehicle+vehicle 1.3 ± 0.1
[7] = Table 7, DOR agonist, ipsilateral paw, subplantar DPDPE 150 µg, naltrindole 50 µg, NX-ME 50 µg, vehicle+vehicle 3.4 ± 0.5

Cc1c(C(=O)NN2CCCCC2)nn(-c2ccc(Cl)cc2Cl)c1-c1ccc(I)cc1 [AM251, N-(piperidin-1-yl)-5-(4-iodophenyl)-1-(2,4-dichlorophenyl)-4-methyl-1 H-pyrazole-3-carboxamide]
Thermal hyperalgesia Withdrawal latency (CFA-injected mice [1]; [4]): 3.6 ± 0.4 s
reversal of the antihyperalgesic (antinociceptive) effects produced by 300 µg of JWH-015 (CFA-injected mice [1]; AM630 60 µg, AM251 150 µg): unable to revert
Mechanical allodynia von Frey filaments strength (CFA-injected mice [2]; [5]): 1.4 ± 0.1 g
reversal of the antiallodynic (antinociceptive) effects produced by 300 µg of JWH-015 (CFA-injected mice [2]; AM630 60 µg, AM251 150 µg): unable to revert

CCCn1c(C)c(C(=O)c2cccc3ccccc23)c2ccccc21 [JWH-015, (2-Methyl-1-propyl-1H-indol-3-yl)-1-naphthalenylmethanone]
Thermal hyperalgesia, Experimental results (%) (maximal possible effect) (CFA-injected mice [1]; Table 6, ipsilateral paw, CoPP 10 mg/kg intraperitoneal, JWH-015 30 µg subplantar, vehicle 4.9): 7.4%
Thermal hyperalgesia Withdrawal latency (CFA-injected mice [1]; [4]): 9.2 ± 0.2 s
Mechanical allodynia, Experimental results (%) (maximal possible effect) (CFA-injected mice [2]; Table 6, JWH-015 30 µg subplantar, vehicle 4.1): 7.5%
Mechanical allodynia von Frey filaments strength (CFA-injected mice [2]; [5]): 2.5 ± 0.2 g

[2-D-penicillamine,5-D-penicillamine]-enkephalin [DPDPE]
Thermal hyperalgesia, Experimental results (%) (maximal possible effect) (CFA-injected mice [3]; Table 5, ipsilateral paw, CoPP 10 mg/kg intraperitoneal, DPDPE 50 µg subplantar, vehicle 4.0): 16.0%
Thermal hyperalgesia Withdrawal latency (CFA-injected mice [3]; Table 7, DOR agonist, ipsilateral paw, subplantar DPDPE 150 µg, naltrindole 50 µg, NX-ME 50 µg, vehicle+vehicle 3.4 ± 0.5, mean ± SEM, n=6): 9.2 ± 0.7 s
thermal hyperalgesia induced by peripheral inflammation (CFA-injected mice [3]; subplantar administration, DPDPE 50-150 µg, JWH-015 30-300 µg (Fig. 1B, 2B)): dose-dependently inhibited
Mechanical allodynia, Experimental results (%) (maximal possible effect) (CFA-injected mice [2]; Table 5, DPDPE 50 µg subplantar, vehicle 5.8): 11.8%
Mechanical allodynia von Frey filaments strength (CFA-injected mice [2]; [6]): 2.4 ± 0.1 g
mechanical allodynia induced by peripheral inflammation (CFA-injected mice [2]; subplantar administration, DPDPE 50-150 µg, JWH-015 30-300 µg (Fig. 1A, 2A)): dose-dependently inhibited

COc1ccc(C(=O)c2c(C)n(CCN3CCOCC3)c3cc(I)ccc23)cc1 [AM630]
Thermal hyperalgesia Withdrawal latency (CFA-injected mice [1]; [4]): 3.7 ± 0.2 s
reversal of the antihyperalgesic (antinociceptive) effects produced by 300 µg of JWH-015 (CFA-injected mice [1]; AM630 60 µg, AM251 150 µg): completely reversed
Mechanical allodynia von Frey filaments strength (CFA-injected mice [2]; [5]): 1.3 ± 0.1 g
reversal of the antiallodynic (antinociceptive) effects produced by 300 µg of JWH-015 (CFA-injected mice [2]; AM630 60 µg, AM251 150 µg): completely reversed

C=Cc1c(C)c2cc3[nH]c(cc4nc(cc5nc(cc1[nH]2)C(C)=C5CCC(=O)[O-])C(CCC(=O)[O-])=C4C)c(C)c3C=C.[Cl-].[Cl-].[Sn+4] [SnPP, tin (IV) protoporphyrin IX dichloride]
effect of SnPP coadministration on the local antihyperalgesic effects of DPDPE (CFA-injected mice [1]; SnPP 290 µg + DPDPE 150 µg subplantar, P < 0.001 (Fig. 5B)): significantly decreased
effect of SnPP coadministration on the local antihyperalgesic effects of JWH-015 (CFA-injected mice [1]; SnPP 290 µg + JWH-015 300 µg subplantar, P < 0.001 (Fig. 5B)): significantly decreased
thermal hyperalgesia induced by peripheral inflammation (CFA-injected mice [1]; SnPP alone 290 µg subplantar (Fig. 5B)): did not alter
effect of SnPP coadministration on the local antiallodynic effects of DPDPE (CFA-injected mice [2]; SnPP 290 µg + DPDPE 150 µg subplantar, P < 0.001 (Fig. 5A)): significantly decreased
effect of SnPP coadministration on the local antiallodynic effects of JWH-015 (CFA-injected mice [2]; SnPP 290 µg + JWH-015 300 µg subplantar, P < 0.001 (Fig. 5A)): significantly decreased
mechanical allodynia induced by peripheral inflammation (CFA-injected mice [2]; SnPP alone 290 µg subplantar (Fig. 5A)): did not alter

C=CC[N+]1(C)CC[C@]23c4c5ccc(O)c4O[C@H]2C(=O)CC[C@@]3(O)[C@H]1C5 (some centres unmarked) [NX-ME, naloxone methiodide]
Thermal hyperalgesia Withdrawal latency (CFA-injected mice [1]; [7]): 3.6 ± 0.5 s
reversal of the antihyperalgesic effects produced by 150 µg of DPDPE (CFA-injected mice [1]; naltrindole 50 µg, NX-ME 50 µg): completely reversed
Mechanical allodynia von Frey filaments strength (CFA-injected mice [2]; [6]): 1.2 ± 0.1 g
reversal of the antiallodynic effects produced by 150 µg of DPDPE (CFA-injected mice [2]; naltrindole 50 µg, NX-ME 50 µg): completely reversed

Oc1ccc2c3c1O[C@H]1c4[nH]c5ccccc5c4C[C@@]4(O)[C@@H](C2)N(CC2CC2)CC[C@]314 [Naltrindole, naltrindole]
Thermal hyperalgesia Withdrawal latency (CFA-injected mice [1]; [7]): 3.4 ± 0.6 s
reversal of the antihyperalgesic effects produced by 150 µg of DPDPE (CFA-injected mice [1]; naltrindole 50 µg, NX-ME 50 µg): completely reversed
Mechanical allodynia von Frey filaments strength (CFA-injected mice [2]; [6]): 1.3 ± 0.1 g
reversal of the antiallodynic effects produced by 150 µg of DPDPE (CFA-injected mice [2]; naltrindole 50 µg, NX-ME 50 µg): completely reversed

From patent EP2992880A1, “Use of heme oxygenase 1 inducers and cannabinoid 2 receptor or delta-opioid receptor agonists in inflammatory pain” (Fundació Institut de Recerca de l'Hospital de la Santa Creu …, priority 2014, dated 2016)
